Earlier results in publication PMC10323144, “Garbage in, garbage out: how reliable training data improved a virtual screening approach against SARS-CoV-2 MPro” (Frontiers in Pharmacology, 2023).

Tested on: MPro
Details: compiled from peer-reviewed sources (287 compounds) ref the 18 original articles; cited from earlier work

CC1OC(OCC2OC(OCCc3ccc(O)c(O)c3)C(O)C(OC(=O)C=Cc3ccc(O)c(O)c3)C2O)C(O)C(O)C1O (stereo not drawn) [Forsythoside I]
Class (MPro activity class): 1 (Compounds with IC50 < 10 µM or with a percentage of enzyme inhibition >50% at 10 µM were labelled as ACTIVE)

CO[C@@H]1[C@H](OC(=O)/C=C/C=C/C=C/C=C/C(=O)O)CC[C@]2(CO2)[C@H]1[C@@]1(C)O[C@@H]1CC=C(C)C [Fumagillin]
Class (MPro activity class): 0 (compounds with IC50 > 20 μM, percentage inhibition <80% at 20 µM or 50 μM, or percentage enzyme inhibition <50% at 10 µM were labelled as INACTIVE)

Cc1cc(Nc2cc(CN3CCOCC3)c3nc(C)c(Cc4ccc(Cl)cc4F)n3n2)n[nH]1 [GANDOTINIB]
Class (MPro activity class): 0 (compounds with IC50 > 20 μM, percentage inhibition <80% at 20 µM or 50 μM, or percentage enzyme inhibition <50% at 10 µM were labelled as INACTIVE)

CC(C)CC(NC(=O)OCc1ccccc1)C(=O)NC(C=O)CC1CCNC1=O (stereo not drawn) [GC373]
Class (MPro activity class): 1 (Compounds with IC50 < 10 µM or with a percentage of enzyme inhibition >50% at 10 µM were labelled as ACTIVE)

CC(C)CC(NC(=O)OCc1ccccc1)C(=O)NC(CC1CCNC1=O)C(O)S(=O)(=O)O (stereo not drawn) [GC-376]
Class (MPro activity class): 1 (Compounds with IC50 < 10 µM or with a percentage of enzyme inhibition >50% at 10 µM were labelled as ACTIVE)

O=C(CCl)N1CCN(C(c2ccccc2)C2CCCCC2)CC1 (stereo not drawn) [GIA-UNK-20b63697-6]
Class (MPro activity class): 1 (Compounds with IC50 < 10 µM or with a percentage of enzyme inhibition >50% at 10 µM were labelled as ACTIVE)

O=C(OCC(O)CO)c1ccccc1Nc1ccnc2cc(Cl)ccc12 (stereo not drawn) [GLAFENINE]
Class (MPro activity class): 0 (compounds with IC50 > 20 μM, percentage inhibition <80% at 20 µM or 50 μM, or percentage enzyme inhibition <50% at 10 µM were labelled as INACTIVE)

O=C(Oc1cncc(Cl)c1)c1cccc2c1CCN2 [GRL-172]
Class (MPro activity class): 1 (Compounds with IC50 < 10 µM or with a percentage of enzyme inhibition >50% at 10 µM were labelled as ACTIVE)

COc1cccc(Nc2c(C(N)=O)cnc3c(C)cc(S(=O)(=O)c4cccc(C(=O)N(C)C)c4)cc23)c1 [GSK-256066]
Class (MPro activity class): 0 (compounds with IC50 > 20 μM, percentage inhibition <80% at 20 µM or 50 μM, or percentage enzyme inhibition <50% at 10 µM were labelled as INACTIVE)

CCOC(=O)c1ccc(OC(=O)CCCCCNC(=N)N)cc1 [Gabexate]
Class (MPro activity class): 0 (compounds with IC50 > 20 μM, percentage inhibition <80% at 20 µM or 50 μM, or percentage enzyme inhibition <50% at 10 µM were labelled as INACTIVE)

CC(C)(C)[C@@H]1NC(=O)O[C@@H]2CCC[C@H]2OC/C=C/C(F)(F)c2nc3ccccc3nc2O[C@@H]2C[C@@H](C(=O)N[C@]3(C(=O)NS(=O)(=O)C4(C)CC4)C[C@H]3C(F)F)N(C2)C1=O [Glecaprevir]
Class (MPro activity class): 0 (compounds with IC50 > 20 μM, percentage inhibition <80% at 20 µM or 50 μM, or percentage enzyme inhibition <50% at 10 µM were labelled as INACTIVE)

O=c1c(O)c(-c2ccc(O)cc2)oc2c(O)c(O)cc(O)c12 [Herbacetin]
Class (MPro activity class): 0 (compounds with IC50 > 20 μM, percentage inhibition <80% at 20 µM or 50 μM, or percentage enzyme inhibition <50% at 10 µM were labelled as INACTIVE)

CCN(CCO)CCCC(C)Nc1ccnc2cc(Cl)ccc12 (stereo not drawn) [Hydroxychloroquine]
Class (MPro activity class): 0 (compounds with IC50 > 20 μM, percentage inhibition <80% at 20 µM or 50 μM, or percentage enzyme inhibition <50% at 10 µM were labelled as INACTIVE)

Cc1cc(C(=O)CN2CCCC2)c(C)n1-c1ccc(F)cc1 [IU1 S7134]
Class (MPro activity class): 0 (compounds with IC50 > 20 μM, percentage inhibition <80% at 20 µM or 50 μM, or percentage enzyme inhibition <50% at 10 µM were labelled as INACTIVE)

CNC(=O)[C@H](Cc1c[nH]c2ccccc12)NC(=O)[C@@H](CC(=O)NO)CC(C)C [Ilomastat]
Class (MPro activity class): 0 (compounds with IC50 > 20 μM, percentage inhibition <80% at 20 µM or 50 μM, or percentage enzyme inhibition <50% at 10 µM were labelled as INACTIVE)

O=C(C=Cc1ccc(O)c(O)c1)OC1CC(O)(C(=O)O)CC(OC(=O)C=Cc2ccc(O)c(O)c2)C1O (stereo not drawn) [Isochlorogenic acid A]
Class (MPro activity class): 0 (compounds with IC50 > 20 μM, percentage inhibition <80% at 20 µM or 50 μM, or percentage enzyme inhibition <50% at 10 µM were labelled as INACTIVE)

O=C(C=Cc1ccc(O)c(O)c1)OC1CC(O)(C(=O)O)CC(O)C1OC(=O)C=Cc1ccc(O)c(O)c1 (stereo not drawn) [Isochlorogenic acid B]
Class (MPro activity class): 0 (compounds with IC50 > 20 μM, percentage inhibition <80% at 20 µM or 50 μM, or percentage enzyme inhibition <50% at 10 µM were labelled as INACTIVE)

CCC(C)n1ncn(-c2ccc(N3CCN(c4ccc(OCC5COC(Cn6cncn6)(c6ccc(Cl)cc6Cl)O5)cc4)CC3)cc2)c1=O (stereo not drawn) [Itraconazole]
Class (MPro activity class): 0 (compounds with IC50 > 20 μM, percentage inhibition <80% at 20 µM or 50 μM, or percentage enzyme inhibition <50% at 10 µM were labelled as INACTIVE)

CCC(C)C1OC2(CCC1C)CC1CC(CC=C(C)C(OC3CC(OC)C(OC4CC(OC)C(O)C(C)O4)C(C)O3)C(C)C=CC=C3COC4C(O)C(C)=CC(C(=O)O1)C34O)O2 (stereo not drawn) [Ivermectin]
Class (MPro activity class): 0 (compounds with IC50 > 20 μM, percentage inhibition <80% at 20 µM or 50 μM, or percentage enzyme inhibition <50% at 10 µM were labelled as INACTIVE)

O=C(Cc1cccc(Cl)c1)Nn1cnc2ccccc21 [JAN-GHE-5a013bed-2]
Class (MPro activity class): 1 (Compounds with IC50 < 10 µM or with a percentage of enzyme inhibition >50% at 10 µM were labelled as ACTIVE)

O=C(Cc1cccc(Cl)c1)Nn1cnc2ccccc2c1=O [JAN-GHE-5a013bed-3]
Class (MPro activity class): 1 (Compounds with IC50 < 10 µM or with a percentage of enzyme inhibition >50% at 10 µM were labelled as ACTIVE)

Cc1ccncc1NC(=O)Cc1cccc(Br)c1 [JAN-GHE-83b26c96-12]
Class (MPro activity class): 0 (compounds with IC50 > 20 μM, percentage inhibition <80% at 20 µM or 50 μM, or percentage enzyme inhibition <50% at 10 µM were labelled as INACTIVE)

O=C(Nc1cccnc1)N(CCC1CCCCC1)c1cccc(Cl)c1 [JOR-UNI-2fc98d0b-12]
Class (MPro activity class): 1 (Compounds with IC50 < 10 µM or with a percentage of enzyme inhibition >50% at 10 µM were labelled as ACTIVE)

O=C(Nc1cnn2ccc(N3CCC[C@@H]3c3cc(F)ccc3F)nc12)N1CC[C@H](O)C1 [LAROTRECTINIB]
Class (MPro activity class): 0 (compounds with IC50 > 20 μM, percentage inhibition <80% at 20 µM or 50 μM, or percentage enzyme inhibition <50% at 10 µM were labelled as INACTIVE)

Cc1nn(-c2ccccc2)c(Nc2cccc(C(F)(F)F)c2)c1NS(C)(=O)=O [LASSBio-428 (10)]
Class (MPro activity class): 0 (compounds with IC50 > 20 μM, percentage inhibition <80% at 20 µM or 50 μM, or percentage enzyme inhibition <50% at 10 µM were labelled as INACTIVE)

O=C(NN=Cc1c[nH]cn1)C1CCCCC1 [LASSBio-1600 (15)]
Class (MPro activity class): 0 (compounds with IC50 > 20 μM, percentage inhibition <80% at 20 µM or 50 μM, or percentage enzyme inhibition <50% at 10 µM were labelled as INACTIVE)

O=C(CNc1c(-c2ccccc2)nc2ccccn12)NN=Cc1cccc2ccccc12 [LASSBio-1615 (11)]
Class (MPro activity class): 0 (compounds with IC50 > 20 μM, percentage inhibition <80% at 20 µM or 50 μM, or percentage enzyme inhibition <50% at 10 µM were labelled as INACTIVE)

Cc1[nH]c2ccccc2c1C=NN(C)C(=O)c1ccc2c(c1)OCO2 [LASSBio-1649 (13)]
Class (MPro activity class): 0 (compounds with IC50 > 20 μM, percentage inhibition <80% at 20 µM or 50 μM, or percentage enzyme inhibition <50% at 10 µM were labelled as INACTIVE)

CN1C(=O)C(=NNC(=O)c2ccc3c(c2)OCO3)c2ccccc21 [LASSBio-1652 (16)]
Class (MPro activity class): 0 (compounds with IC50 > 20 μM, percentage inhibition <80% at 20 µM or 50 μM, or percentage enzyme inhibition <50% at 10 µM were labelled as INACTIVE)

Cc1csc(C(=O)NN=Cc2cccnc2)c1N [LASSBio-1891 (14)]
Class (MPro activity class): 0 (compounds with IC50 > 20 μM, percentage inhibition <80% at 20 µM or 50 μM, or percentage enzyme inhibition <50% at 10 µM were labelled as INACTIVE)

O=C(Nc1ccccc1)Nc1cnc2ccc([N+](=O)[O-])cc2n1 [LASSBio-1962 (8)]
Class (MPro activity class): 0 (compounds with IC50 > 20 μM, percentage inhibition <80% at 20 µM or 50 μM, or percentage enzyme inhibition <50% at 10 µM were labelled as INACTIVE)

CC(=O)ON=C1C(=O)N(Cc2cc(Cl)ccc2Cl)c2ccc(Cl)cc21 [LDN-57444]
Class (MPro activity class): 0 (compounds with IC50 > 20 μM, percentage inhibition <80% at 20 µM or 50 μM, or percentage enzyme inhibition <50% at 10 µM were labelled as INACTIVE)

O=C(CCl)N1CCN(S(=O)(=O)c2c(F)cccc2F)CC1 [LON-WEI-8f408cad-2]
Class (MPro activity class): 1 (Compounds with IC50 < 10 µM or with a percentage of enzyme inhibition >50% at 10 µM were labelled as ACTIVE)

O=C(CCl)N1CCN(S(=O)(=O)c2cccs2)CC1 [LON-WEI-8f408cad-3]
Class (MPro activity class): 1 (Compounds with IC50 < 10 µM or with a percentage of enzyme inhibition >50% at 10 µM were labelled as ACTIVE)

O=C(CCl)N1CCN(S(=O)(=O)c2cccc(F)c2)CC1 [LON-WEI-8f408cad-4]
Class (MPro activity class): 1 (Compounds with IC50 < 10 µM or with a percentage of enzyme inhibition >50% at 10 µM were labelled as ACTIVE)

C=CC(=O)N(c1ccc(C(C)(C)C)cc1)C(C(=O)Nc1ccc(OC)cc1OC)c1cccnc1 (stereo not drawn) [LON-WEI-adc59df6-45]
Class (MPro activity class): 1 (Compounds with IC50 < 10 µM or with a percentage of enzyme inhibition >50% at 10 µM were labelled as ACTIVE)

C=CC(=O)N(c1ccc(C(C)(C)C)cc1)C(C(=O)NCCc1cccc(F)c1)c1cccnc1 (stereo not drawn) [LON-WEI-adc59df6-47]
Class (MPro activity class): 1 (Compounds with IC50 < 10 µM or with a percentage of enzyme inhibition >50% at 10 µM were labelled as ACTIVE)

C=CC(=O)N(c1ccc(C(C)(C)C)cc1)C(C(=O)NCCc1cccc(F)c1)c1cncc(C#N)c1 (stereo not drawn) [LON-WEI-babf2c61-3]
Class (MPro activity class): 1 (Compounds with IC50 < 10 µM or with a percentage of enzyme inhibition >50% at 10 µM were labelled as ACTIVE)

CS(=O)(=O)c1ncc(Cl)c(C(=O)Nc2ccccc2Cc2ccccc2)n1 [LON-WEI-ff7b210a-4]
Class (MPro activity class): 1 (Compounds with IC50 < 10 µM or with a percentage of enzyme inhibition >50% at 10 µM were labelled as ACTIVE)
